“Also recorded” adds a separate entry of the source.
System: Arabidopsis seedlings (wild type Col-0, epi-line, Col-0/msh1 graft progeny)
Test: 5-Azacytidine treatment and root length assay (methylation inhibition assay)
Format: in vivo
Settings: 50 μM 5-azacytidine, half-strength MS plates, seedlings transferred 3 days post-germination, root lengths measured at ten days
Source text: FIG. 27A-C. a, Distribution of msh1 SNPs and indels versus Col-0 across the genome. Each dot represents the number of SNPs and indels found in a window of 50 kbp. Note that the Y-axis has been synchronized with the maximum number found on chr4 to enable comparisons between chromosomes. The region 7,800,000-9,850,0000 bp on chr4, a likely introgressed segment from Ler, contains 8582 of the total 12,771 SNPs and indels. […] Paired-end genome-wide sequencing, alignment and de novo partial assembly of the chm1-1 genome produced 14,416 contigs (n50=40,761 bp) containing 118.5 Mbp; mapping these contigs against Col-0 covers 72 Mbp. Alignment of paired-end reads to the Col-0 public reference sequence produced 95% alignment and identified 12,771 SNPs and indels, with the one 2-Mbp interval, on chromosome 4, accounting for 8,582 and the second on Chromosome 3 accounting for 2200. […]
Treatment with azacytidine can be used to nullify methylation effects^42. […] Ten days after moving to growth chamber, plates were scanned and root lengths were measured using ImageJ. […]

Nc1ncn([C@@H]2O[C@H](CO)[C@@H](O)[C@H]2O)c(=O)n1 [5-azacytidine]
effect on enhanced epi-line root length: restoration of epi-F3 seedlings to wild type growth levels; also recorded: abolished

Source: patent US20150052630A1, “Methods and Compositions for Obtaining Useful Plant Traits” (Board of Regents of the University of Nebraska, priority 2013, published 2015)
